Data from patent publication US9561289B2, “Peptides for inhibiting tumor growth” (OSPEDALE SAN RAFFAELE SRL, priority 2012, dated 2017).

How the values were obtained:
[1] = system: CD13-positive (HT-1080 and HUVECs) cells; experiment: Binding of NGR peptide/Qdot to CD13-positive cells (fluorescence microscopy); type: cell-based, human; details: 2 h at 37° C.
Method: (§1) (B) Binding of head-to-tail cyclized NGR peptides and disulphide constrained NGR peptide (ac-NGR-2C-TNF1-11, corresponding to acetylated-[…]) (SEQ ID NO:33) conjugated to fluorescent nanoparticles (Qdot) to HT-1080, human umbilical vein cells (HUVECs), and MCF-7 cells. NGR#/Qdots were prepared using the sulfo-SMCC linker (black, bars), whereas ac-NGR-2C-TNF1-11/Qdot were prepared using the BS3 linker (white, bars). Linker-Qdot, i.e. lacking the peptide, are indicated as None. Quantification of staining intensity was performed by using the Photoshop software. Six images were analyzed for each condition. Representative images are shown. Magnification, ×400; scale bar, 20 μm; red, Qdot; blue, nuclear staining with DAPI.
(§2) The binding of NGR-peptide/Qdot conjugates to HT-1080, HUVECs and MCF-7, was analyzed as follows: the cells were grown in chamber slides (3-4×10^4 cell/well, plated 48 h before the experiment). After washing with DMEM containing 1% fetal bovine serum (binding buffer), each NGR-peptide/Qdot conjugate (3-10 nM, in binding buffer) was added to the cells and left to incubate for 2 h at 37° C. in 5% CO2. […] The cells were then analyzed using an Axioscop 40 FL microscope (Carl Zeiss, Germany) equipped with AxioCam MRc5 digital camera and Axiovison software (Carl Zeiss).

[2] = system: CD13-negative MCF-7 cells; experiment: Binding of NGR peptide/Qdot to CD13-negative cells (fluorescence microscopy); type: cell-based, human
Method: as §1, §2

WEHI-164 fibrosarcoma = experiment: Tumor growth in WEHI-164 fibrosarcoma-bearing mice; type: in vivo; details: WEHI-164 model, i.p., biweekly, 0.032 to 20 μg
Text: Arrows indicate the time of treatment. Tumor volumes are shown. Mean±S.E (6 or 12 mice/group).
Studies in animal models were approved by the Ethical Committee of the San Raffaele Scientific Institute, and performed according to the prescribed guidelines. BALB/c (Harlan) or C57BL/6N mice (Charles River Laboratories), weighing 16 to 18 g, were challenged with s.c. injection in the left flank of 10^6 WEHI-164 or 7×10^4 RMA living cells. […] Tumor growth was monitored daily by measuring tumor volumes with calipers, as previously described [30]. Animals were sacrificed before tumors reached a diameter of 1.0 to 1.5 cm. Tumor sizes are shown as mean±SE (6 mice/group in each experiment).

| Compound | binding to CD13-positive cells [1] | binding to CD13-negative cells [2] | tumor growth (WEHI-164 fibrosarcoma) |
| --- | --- | --- | --- |
| NGR#3-Qdot: NGR#3 coupled to sulfo-SMCC-activated Qdot fluorescent nanoparticles (cyclo(CNGRGG); not fully specified (residue 1); also: linker joined to Qdot605 nanoparticle) | could bind CD13-positive cells | failed to bind |  |
| CC(C)[C@H]1C(=O)N[C@@H](CCCNC(=N)N)C(=O)NCC(=O)N[C@@H](CC(=O)O)C(=O)N[C@H](Cc2ccccc2)C(=O)N1C [Cilengitide, cyclo(arginylglycyl-aspartyl-D-phenylalanyl-N-methyl-valyl)] |  |  | can delay the growth |
